Test results published in article PMC3549253, “Effect of repetitive lysine–tryptophan motifs on the bactericidal activity of antimicrobial peptides” (Amino Acids, 2012).
Like-named read-outs stand apart in the source and are kept apart here. Residues, ends and D or L forms follow the SMILES beside them. No end group written: not given here.

Legend:
[1] = test system: Pseudomonas aeruginosa (KCTC 1637); assay type: cell-based; details: KCTC 1637, 24 h, pH 7.2
Excerpt: (§1) Escherichia coli (KCTC 1682), Salmonella typhimurium (KCTC 1926), Pseudomonas aeruginosa (KCTC 1637), Staphylococcus aureus (KCTC 1621), Bacillus subtilis (KCTC 1918), and Listeria monocytogenes (KCTC 3710) were obtained from the Korean Collection for Type Cultures (KCTC). Drug-resistant E. coli strains (CCARM 1229 and CCARM 1238), S. typhimurium strains (CCARM 8007, CCARM 8009, and CCARM 8013), and S. aureus strains (CCARM 3089, CCARM 3090, CCARM 3108, CCARM 3114, and CCARM 3126) were from the Culture Collection of Antibiotic-Resistant Microbes (CCARM) at Seoul Women’s University, Korea.
(§2) The antibacterial activities of the peptides against Gram-negative, Gram-positive and antibiotic-resistant bacterial strains were evaluated using the microbroth dilution method (Park et al. [2003]). Aliquots of culture medium containing bacterial suspensions in mid-logarithmic phase at a concentration of 2 × 10^5 colony forming units (CFU)/ml were added to each well of a multiwell plate containing peptide solution serially diluted 2× in 10 mM sodium phosphate buffer (pH 7.2) or phosphate-buffered saline (PBS, 1.5 mM KH2PO4, 2.7 mM KCl, 8.1 mM Na2HPO4, 150 mM NaCl, pH 7.2). Growth inhibition was evaluated by measuring the absorbance at 620 nm using a Versa-Max microplate Elisa Reader (Molecular Devices Co., Sunnyvale, CA, USA) after 24 h of incubation at 37° C. […] All MIC measurements were the average of 3–4 independent experiments.

[2] = test system: Listeria monocytogenes (KCTC 3710); assay type: cell-based; details: KCTC 3710, 24 h, pH 7.2
Excerpt: as §1, §2

[3] = test system: S. typhimurium CCARM 8007; assay: microbe, parasite or virus in culture; assay type: cell-based, Salmonella typhimurium
Excerpt: as §1, §2

[4] = test system: S. aureus CCARM 3108; assay: microbe, parasite or virus in culture; assay type: cell-based, Staphylococcus aureus
Excerpt: as §1, §2

[5] = test system: S. aureus CCARM 3089; assay: microbe, parasite or virus in culture; assay type: cell-based, Staphylococcus aureus
Excerpt: as §1, §2

[6] = test system: S. aureus CCARM 3114; assay: microbe, parasite or virus in culture; assay type: cell-based, Staphylococcus aureus
Excerpt: as §1, §2

[7] = test system: S. aureus CCARM 3090; assay: microbe, parasite or virus in culture; assay type: cell-based, Staphylococcus aureus
Excerpt: as §1, §2

[8] = test system: S. aureus CCARM 3126; assay: microbe, parasite or virus in culture
Excerpt: as §1
The antibacterial activities of the peptides against Gram-negative, Gram-positive and antibiotic-resistant bacterial strains were evaluated using the microbroth dilution method (Park et al. [2003]). Aliquots of culture medium containing bacterial suspensions in mid-logarithmic phase at a concentration of 2 × 10^5 colony forming units (CFU)/ml were added to each well of a multiwell plate containing peptide solution serially diluted 2× in 10 mM sodium phosphate buffer (pH 7.2) or phosphate-buffered saline (PBS, 1.5 mM KH2PO4, 2.7 mM KCl, 8.1 mM Na2HPO4, 150 mM NaCl, pH 7.2). Growth inhibition was evaluated by measuring the absorbance at 620 nm using a Versa-Max microplate Elisa Reader (Molecular Devices Co., Sunnyvale, CA, USA) after 24 h of incubation at 37° C.

[9] = test system: human red blood cells; assay: Human red blood cell (hRBC) hemolysis; assay type: cell-based; details: for Hemolysis: 200 μM peptide in PBS pH 7.2, 4 % v/v hRBCs, 60 min at 37° C, absorbance 414 nm, 100 % = 0.1 % Triton X-100, triplicate; for MHC (minimal hemolytic concentration): minimal peptide concentration that produces 10 % hemolysis, hRBCs in PBS
Protocol: Hemolytic activities of the peptides were assessed using heparinized hRBCs collected from healthy donors. Fresh hRBCs were washed three times by centrifugation at 800×g for 10 min in PBS (pH 7.2) and then resuspended in PBS. The peptides were then dissolved in PBS and added to 100 μl of stock hRBCs suspended in PBS (final RBC concentration, 4 % v/v), after which the samples were incubated with gentle agitation for 60 min at 37° C before centrifugation for 10 min at 800×g. Absorbance of the supernatants was recorded at 414 nm. In addition, control samples for zero hemolysis and 100 % hemolysis were incubated with PBS (A blank) or 0.1 % Triton X-100 (A triton), respectively. Melittin was used as a reference hemolytic peptide. Percent hemolysis was calculated according to the following equation: Each measurement was conducted in triplicate (Kim et al. [2011]).

[10] = test system: E. coli CCARM 1238; assay: microbe, parasite or virus in culture; assay type: cell-based, Escherichia coli
Excerpt: as §1, §2

[11] = test system: Salmonella typhimurium (KCTC 1926); assay: microbe, parasite or virus in culture; assay type: cell-based; details: pH 7.2
Excerpt: as §1, §2

[12] = test system: S. typhimurium CCARM 8009; assay: microbe, parasite or virus in culture; assay type: cell-based, Salmonella typhimurium
Excerpt: as §1, §2

[13] = test system: S. typhimurium CCARM 8013; assay: microbe, parasite or virus in culture; assay type: cell-based, Salmonella typhimurium
Excerpt: as §1, §2

[14] = test system: E. coli CCARM 1229; assay: microbe, parasite or virus in culture; assay type: cell-based, Escherichia coli
Excerpt: as §1, §2

[15] = test system: Escherichia coli (KCTC 1682); assay: microbe, parasite or virus in culture; assay type: cell-based; details: pH 7.2
Excerpt: as §1, §2

[16] = test system: Staphylococcus aureus (KCTC 1621); assay: microbe, parasite or virus in culture; assay type: cell-based; details: pH 7.2
Excerpt: as §1, §2

[17] = test system: Bacillus subtilis (KCTC 1918); assay type: cell-based; details: KCTC 1918, 24 h, pH 7.2
Excerpt: as §1, §2

[18] = drug-resistant strain, 10 mM sodium phosphate buffer, pH 7.2, 2 × 10^5 CFU/ml, 24 h at 37° C, average of 3–4 independent experiments
[19] = drug-resistant strain, PBS, pH 7.2 (number in parentheses), 2 × 10^5 CFU/ml, 24 h at 37° C, average of 3–4 independent experiments
[20] = Salmonella enterica, drug-resistant strain, 10 mM sodium phosphate buffer, pH 7.2, 2 × 10^5 CFU/ml, 24 h at 37° C, average of 3–4 independent experiments, read-out: MIC
[21] = drug-resistant strain, 10 mM sodium phosphate buffer, pH 7.2, 2 × 10^5 CFU/ml, 24 h at 37° C, average of 3–4 independent experiments, read-out: MIC

KWKWKWKW-NH2 [(KW)4, KWKWKWKW-NH2]
3.12 (3.12) μM: MIC [1] | MIC [2]
210 µM: MHC (minimal hemolytic concentration) [9]
1.56 (1.56) μM: MIC ([11]; KCTC 1926, 24 h)
12.5 (12.5) μM: MIC [3, 18] | MIC [3, 19] | MIC [4, 18] | MIC [4, 19] | MIC [5, 18] | MIC [5, 19] | MIC [6, 18] | MIC [6, 19] | MIC [7, 18] | MIC [7, 19] | MIC [8, 18] | MIC [8, 19] | MIC [10, 18] | MIC [10, 19]
8%: Hemolysis [9]

CC1(C)S[C@@H]2[C@H](NC(=O)[C@H](N)c3ccccc3)C(=O)N2[C@H]1C(=O)O [Ampicillin, reference compound]
>200 (>200) μM: MIC [3, 19] | MIC [12, 19] | MIC [13, 19] | MIC [14, 19] | MIC [10, 19]
> 200 µM: MIC [3, 20] | MIC [12, 20] | MIC [13, 20] | MIC ([14]; Escherichia coli, CCARM1229, drug-resistant strain, 10 mM sodium phosphate buffer, pH 7.2, 2 × 10^5 CFU/ml, 24 h at 37° C, average of 3–4 independent experiments, read-out: MIC) | MIC ([10]; Escherichia coli, CCARM1238, drug-resistant strain, 10 mM sodium phosphate buffer, pH 7.2, 2 × 10^5 CFU/ml, 24 h at 37° C, average of 3–4 independent experiments, read-out: MIC)
25 µM: MIC ([11]; Salmonella enterica, 10 mM sodium phosphate buffer, 2 × 10^5 CFU/ml, 24 h at 37° C, average of 3–4 independent experiments, read-out: MIC)
50 µM: MIC ([15]; Escherichia coli, KCTC1682, 24 h)

Cc1onc(-c2ccccc2)c1C(=O)N[C@@H]1C(=O)N2[C@@H]1SC(C)(C)[C@@H]2C(=O)O [Oxacillin, reference compound]
> 200 µM: MIC ([4]; Staphylococcus aureus, CCARM3108, drug-resistant strain, 10 mM sodium phosphate buffer, pH 7.2, 2 × 10^5 CFU/ml, 24 h at 37° C, average of 3–4 independent experiments, read-out: MIC) | MIC ([5]; Staphylococcus aureus, CCARM3089, drug-resistant strain, 10 mM sodium phosphate buffer, pH 7.2, 2 × 10^5 CFU/ml, 24 h at 37° C, average of 3–4 independent experiments, read-out: MIC) | MIC ([6]; Staphylococcus aureus, CCARM3114, drug-resistant strain, 10 mM sodium phosphate buffer, pH 7.2, 2 × 10^5 CFU/ml, 24 h at 37° C, average of 3–4 independent experiments, read-out: MIC) | MIC ([7]; Staphylococcus aureus, CCARM3090, drug-resistant strain, 10 mM sodium phosphate buffer, pH 7.2, 2 × 10^5 CFU/ml, 24 h at 37° C, average of 3–4 independent experiments, read-out: MIC) | MIC ([8]; Staphylococcus aureus, CCARM3126, 24 h, pH 7.2)
>200 (>200) μM: MIC [4, 19] | MIC [5, 19] | MIC [6, 19] | MIC [7, 19] | MIC [8, 19]
12.5 µM: MIC ([16]; Staphylococcus aureus, KCTC1621, 10 mM sodium phosphate buffer, 2 × 10^5 CFU/ml, 24 h at 37° C, average of 3–4 independent experiments, read-out: MIC)

NCCCC[C@H](NC(=O)[C@H](Cc1c[nH]c2ccccc12)NC(=O)[C@@H](N)CCCCN)C(=O)N[C@@H](Cc1c[nH]c2ccccc12)C(N)=O [(KW)2, KWKW-NH2] (H-KWKW-NH2)
550 µM: MHC (minimal hemolytic concentration) [9]
>200 (>200) μM: MIC [1] | MIC [17] | MIC ([3]; CCARM 8007, 24 h, pH 7.2) | MIC ([12]; CCARM 8009, 24 h, pH 7.2) | MIC ([13]; CCARM 8013, 24 h, pH 7.2) | MIC ([4]; CCARM 3108, 24 h, pH 7.2) | MIC ([5]; CCARM 3089, 24 h, pH 7.2) | MIC ([6]; CCARM 3114, 24 h, pH 7.2) | MIC ([7]; CCARM 3090, 24 h, pH 7.2) | MIC ([14]; CCARM 1229, 24 h, pH 7.2) | MIC ([10]; CCARM 1238, 24 h, pH 7.2) | MIC ([15]; KCTC 1682, 24 h) | MIC ([16]; KCTC 1621, 24 h)
200 (>200) μM: MIC [2]

KWKWKWKWKW-NH2 [(KW)5, KWKWKWKWKW-NH2]
25 µM: MIC [3, 21] | MIC [12, 21] | MIC [13, 21] | MIC [6, 21] | MIC [7, 21] | MIC [8, 18] | MIC ([16]; KCTC 1621, 24 h, read-out: MIC)
3.12 (3.12) μM: MIC [2]
71%: Hemolysis [9]
12.5 (12.5) μM: MIC [17]
50 µM: MHC (minimal hemolytic concentration) [9]

KWKWKW-NH2 [(KW)3, KWKWKW-NH2]
200 µM: MIC [8, 19]
350 µM: MHC (minimal hemolytic concentration) [9]
50 µM: MIC [8, 18]
